Data on 11 compounds can be found in ChEMBL document CHEMBL1201862, “PubChem BioAssay data set” (2004).

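Exposure lasted 48 hours, with cells grown in 96-well plates and compounds tested at five concentrations. The concentration for 50% growth inhibition is given as GI50.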 The source made the active and inactive calls. Cut-off read from the data, not from the text of the source: active = GI50 up to about 1.1 µM and inactive = higher.

Assay in all cases: NCI-60 cell line screen, 48 h
The subject of experiment [1] is SF-539.
Experiment [2] relates to NCI-H522.
For experiment [3], the system named is MCF7.
Experiment [4] concerns SK-MEL-28.
Experiment [5] concerns MDA-MB-231.
In experiment [6] the test system is NCI-H460.
For experiment [7], the system named is MDA-MB-435.
Experiment [8] has as its system COLO 205.
In experiment [9] the test system is SF-295.
The subject of experiment [10] is K562.
Experiment [11] has as its system SR.
Experiment [12] has as its system OVCAR-5.
Experiment [13] concerns UACC-62.
Experiment [14] relates to SNB-75.
Experiment [15] has as its system ACHN.
The subject of experiment [16] is MDA-N.
Experiment [17] relates to IGROV-1.
In experiment [18] the test system is UO-31.
Experiment [19] has as its system T47D.
The subject of experiment [20] is 786-0.

Take `CN1CCOC(c2ccc(Cl)cc2)O1` (stereo not given): the GI50 in [1], in experiment [2], in [3], in experiment [4], in experiment [5] and in experiment [6] was > 100 µM (inactive) in each case. Further, the GI50 in experiment [7], in [8], in [9], in [10], in [11] and in experiment [12] was > 100 µM (inactive) each time. Also, the GI50 in experiment [13], in experiment [14], in experiment [15], in experiment [16], in experiment [17] and in experiment [18] was > 100 µM (inactive) in each case.
Regarding `Cc1cc(C)c2c(O)cc(-c3ccc(F)cc3)nc2n1`, the GI50 in [1] is > 100 µM (inactive); in experiment [2], 30.3 µM (inactive); in experiment [3] it was 30.7 µM (inactive); in experiment [19] it was 37.8 µM (inactive); in [4], 37.3 µM (inactive); in experiment [5], 63 µM (inactive). The GI50 in [8] is 32.1 µM (inactive); in experiment [10] it was 32.1 µM (inactive); in [11], 23.3 µM (inactive); in experiment [12] it was 80.5 µM (inactive); in experiment [13], 33.7 µM (inactive); in experiment [14] it was 27.2 µM (inactive). Besides, the GI50 in experiment [15] was 39.7 µM (inactive); in experiment [17] it was 32.4 µM (inactive); in experiment [18], 23.9 µM (inactive).
Take `O=C(Sc1c(-c2ccccc2)c(=O)n(-c2ccccc2)c(=S)n1-c1ccccc1)c1ccccc1`: the GI50 is 36.1 µM (inactive) in [2]; 51.6 µM (inactive) in [3]; 71.1 µM (inactive) in [19]; > 100 µM (inactive) in [4]; > 100 µM (inactive) in experiment [20]; > 100 µM (inactive) in experiment [6]. Besides, the GI50 in [7] is 93.3 µM (inactive); in experiment [8] it was > 100 µM (inactive); in experiment [9] it was 47.4 µM (inactive); in [10], 29 µM (inactive); in experiment [11], 31.3 µM (inactive); in [12], > 100 µM (inactive). The GI50 in experiment [13] was 33.5 µM (inactive); in [14] it was 12.3 µM (inactive); in experiment [15], > 100 µM (inactive); in experiment [16] it was 84.5 µM (inactive); in experiment [17], > 100 µM (inactive); in experiment [18] it was 41.6 µM (inactive).
Regarding `COc1cc([C@@H]2c3cc4c(cc3[C@@H](/N=C/c3ccc(C(=O)O[C@@H](C(=O)O[C@H]5C[C@@]6(O)[C@@H](OC(=O)c7ccccc7)[C@@H]7[C@]8(OC(C)=O)CO[C@@H]8C[C@H](O)[C@@]7(C)C(=O)[C@H](OC(C)=O)C(=C5C)C6(C)C)[C@@H](NC(=O)c5ccccc5)c5ccccc5)cc3)[C@H]3COC(=O)[C@H]23)OCO4)cc(OC)c1O`, the GI50 is 0.0141 µM (active) in experiment [1]; 0.0138 µM (active) in experiment [2]; 0.0128 µM (active) in experiment [3]; > 37.1 µM (inactive) in experiment [4]; 0.0748 µM (active) in [20]; 0.116 µM (active) in experiment [5]. The GI50 in [6] was 0.00929 µM (active); in experiment [7], < 0.005 µM (active); in [8], 0.00891 µM (active); in experiment [9], 0.171 µM (active); in experiment [10], < 0.005 µM (active); in [11], < 0.005 µM (active). For the same compound, the GI50 in experiment [12] is 0.0312 µM (active); in experiment [13], 0.0815 µM (active); in experiment [14], < 0.005 µM (active); in experiment [15], 5.08 µM (inactive); in experiment [16], 0.00589 µM (active); in experiment [17] it was 0.19 µM (active).
For `O=C1/C(=C2/CCCN2)C(c2ccc[nH]2)=NN1c1ccccc1`, the GI50 in experiment [1], in experiment [2], in experiment [19], in [4], in experiment [20] and in experiment [5] was > 100 µM (inactive) each time. Further, the GI50 in experiment [6], in experiment [7], in experiment [8], in experiment [9], in experiment [10] and in experiment [12] was > 100 µM (inactive) in each case. Further, the GI50 in [13], in experiment [14], in experiment [15], in experiment [16] and in [18] was > 100 µM (inactive) in each case.
As to `Cc1ccc(SC[C@@]2(C(F)F)NC(=O)NC2=O)cc1`, the GI50 in [2], in [19], in experiment [4], in experiment [20], in [5] and in [6] was > 100 µM (inactive) in each case. In addition, the GI50 in experiment [7], in experiment [8], in experiment [9], in experiment [10], in [11] and in experiment [12] was > 100 µM (inactive) in each case. In addition, the GI50 in experiment [13], in experiment [14], in experiment [15], in experiment [17] and in experiment [18] was > 100 µM (inactive) in each case.
Take `COc1ccc(C2OC[C@H]3O[C@@H](OCc4ccccc4)[C@H](O)[C@@H](O)[C@@H]3O2)cc1` (stereo not given in full): the GI50 in [1], in experiment [3], in experiment [4], in experiment [5], in experiment [6] and in [7] was > 100 µM (inactive) throughout. Further, the GI50 in [8] was > 100 µM (inactive); in [9], > 100 µM (inactive); in [10] it was > 100 µM (inactive); in [11], 67.9 µM (inactive); in experiment [12], > 100 µM (inactive); in experiment [13] it was > 100 µM (inactive). Besides, the GI50 in experiment [14] was 2.29 µM (inactive); in [15], > 100 µM (inactive); in experiment [16], > 100 µM (inactive); in experiment [17], 55 µM (inactive); in experiment [18], > 100 µM (inactive).
As to `COc1cc(C2SCC(=O)N2c2cc(Cl)c(Cl)cc2Cl)cc(OC)c1OC` (stereo not given), the GI50 was 43.1 µM (inactive) in experiment [1]; 46 µM (inactive) in [2]; 37.7 µM (inactive) in [3]; 84.5 µM (inactive) in [4]; 38.2 µM (inactive) in experiment [20]; > 100 µM (inactive) in experiment [5]. Further, the GI50 was 36.3 µM (inactive) in experiment [6]; 30.5 µM (inactive) in [7]; 39.5 µM (inactive) in experiment [8]; 49.8 µM (inactive) in experiment [9]; 42 µM (inactive) in experiment [10]; 26.4 µM (inactive) in experiment [11]. Besides, the GI50 in [12] is > 100 µM (inactive); in experiment [13] it was 22.2 µM (inactive); in [15], 42.3 µM (inactive); in [16], 25.3 µM (inactive); in experiment [17] it was 62.4 µM (inactive); in experiment [18], 34.7 µM (inactive).
Consider `COc1ccc2c(c1)CC[C@@H]1[C@@H]2CC[C@]2(C)C(=O)/C(=C/c3cc(OC)c(OC)c(OC)c3)C[C@@H]12`, for which the GI50 was 28.2 µM (inactive) in [1]; 42.5 µM (inactive) in [3]; 67 µM (inactive) in [19]; 19.2 µM (inactive) in experiment [20]; 18.1 µM (inactive) in experiment [5]; 31.8 µM (inactive) in [6]. Also, the GI50 in experiment [7] was > 100 µM (inactive); in [8], 87.1 µM (inactive); in [9], 29.4 µM (inactive); in experiment [11], 15.2 µM (inactive); in experiment [12], 24.4 µM (inactive); in experiment [13] it was 30.2 µM (inactive). For the same compound, the GI50 in experiment [14] was 19.4 µM (inactive); in experiment [15] it was 21.7 µM (inactive); in [18], 47.2 µM (inactive).
Turning to `C(/C=N/c1ccccc1)=C(/Nc1ccccc1)c1ccc2ccccc2c1`, the GI50 in experiment [1] was 1.83 µM (inactive); in [2] it was 3.87 µM (inactive); in experiment [3], 3.18 µM (inactive); in experiment [19], 2.36 µM (inactive); in experiment [4], 0.231 µM (active); in experiment [20] it was 2.45 µM (inactive). The GI50 is 1.29 µM (inactive) in experiment [5]; 2.81 µM (inactive) in [6]; 0.299 µM (active) in experiment [7]; 1.85 µM (inactive) in experiment [8]; 1.47 µM (inactive) in experiment [9]; 0.897 µM (active) in [10]. The GI50 is 0.676 µM (active) in experiment [11]; 2.51 µM (inactive) in experiment [12]; 0.548 µM (active) in [13]; 1.64 µM (inactive) in experiment [14]; 2.39 µM (inactive) in experiment [15]; 2.88 µM (inactive) in experiment [17]. For the same compound, the GI50 in experiment [18] was 3.13 µM (inactive).
In the case of `CN(C)c1nc2nonc2nc1Nc1ccccc1`, the GI50 in experiment [2], in [3], in [19], in experiment [4], in experiment [20] and in experiment [5] was > 100 µM (inactive) in each case. The GI50 in [6], in experiment [8], in experiment [9], in [10], in experiment [11] and in experiment [12] was > 100 µM (inactive) each time. The GI50 in experiment [13], in experiment [14], in experiment [15], in [16], in experiment [17] and in experiment [18] was > 100 µM (inactive) throughout.
